According to patent US10087193B2, “Crystalline forms of dolutegravir sodium” (Mylan Laboratories Ltd., priority 2014, dated 2018):

Tests used:
[1] = Thermodynamic stability of the crystalline form; assay type: physicochemical
[2] = Physical and chemical stability on storage (PXRD, Karl Fischer water content, HPLC purity); conditions: for change in PXRD pattern on storage / degradation on storage / increase in moisture content on storage / physical and chemical stability (conclusion): 6 months at 40° C./75% RH and at 25° C./60% RH
Experimental: The physical and chemical stability of dolutegravir sodium Form-M2 and Form-M4 was determined by storing the samples at 40° C./75% relative humidity (RH) and at 25° C./60% RH for 6 months. At different time points during storage, the crystal structure of the material was analyzed by PXRD, the water content by Karl Fischer, and by HPLC for final purity.

[3] = storage at 25° C./60% RH, 1 month
[4] = storage at 25° C./60% RH, 3 months
[5] = storage at 25° C./60% RH, 6 months
[6] = storage at 25° C./60% RH, Initial
[7] = storage at 40° C./75% RH, 1 month
[8] = storage at 40° C./75% RH, 3 months
[9] = storage at 40° C./75% RH, 6 months
[10] = storage at 40° C./75% RH, Initial

Compound | change in PXRD pattern on storage [2] | degradation on storage [2] | increase in moisture content on storage [2] | physical and chemical stability (conclusion) [2] | HPLC purity (%) [2, 3] [%] | PXRD (polymorph found) [2, 3] | HPLC purity (%) [2, 4] [%] | PXRD (polymorph found) [2, 4] | HPLC purity (%) [2, 5] [%] | PXRD (polymorph found) [2, 5] | HPLC purity (%) [2, 6] [%] | PXRD (polymorph found) [2, 6] | HPLC purity (%) [2, 7] [%] | PXRD (polymorph found) [2, 7] | HPLC purity (%) [2, 8] [%] | PXRD (polymorph found) [2, 8] | HPLC purity (%) [2, 9] [%] | PXRD (polymorph found) [2, 9] | HPLC purity (%) [2, 10] [%] | PXRD (polymorph found) [2, 10] | other results
C[C@@H]1CCO[C@H]2Cn3cc(C(=O)NCc4ccc(F)cc4F)c(=O)c([O-])c3C(=O)N12.[Na+] [Form-M3, sodium (4R, 12aS)-9-((2,4-difluorobenzyl)carbamoyl)-4-methyl-6,8-dioxo-3,4,6,8, 12, 12a-hexahydro-2H-pyrido[1′,2′:4,5]pyrazino[2,1-b][1,3]oxazin-7-olate] | – | – | – | – | – | – | – | – | – | – | – | – | – | – | – | – | – | – | – | – | thermodynamic stability [1]: only metastable and not thermodynamically stable
C[C@@H]1CCO[C@H]2Cn3cc(C(=O)NCc4ccc(F)cc4F)c(=O)c([O-])c3C(=O)N12.[Na+] [Form-M4, sodium (4R, 12aS)-9-((2,4-difluorobenzyl)carbamoyl)-4-methyl-6,8-dioxo-3,4,6,8, 12, 12a-hexahydro-2H-pyrido[1′,2′:4,5]pyrazino[2,1-b][1,3]oxazin-7-olate] | no change in PXRD pattern | no significant degradation | no substantial increase in moisture content | physically and chemically stable | 99.17 | Form-M4 | 99.10 | Form-M4 | 99.0 | Form-M4 | 99.24 | Form-M4 | 99.2 | Form-M4 | 99.1 | Form-M4 | 99.0 | Form-M4 | 99.2 | Form-M4 | –
C[C@@H]1CCO[C@H]2Cn3cc(C(=O)NCc4ccc(F)cc4F)c(=O)c([O-])c3C(=O)N12.[Na+] [Form-M2, sodium (4R, 12aS)-9-((2,4-difluorobenzyl)carbamoyl)-4-methyl-6,8-dioxo-3,4,6,8, 12, 12a-hexahydro-2H-pyrido[1′,2′:4,5]pyrazino[2,1-b][1,3]oxazin-7-olate] | no change in PXRD pattern | no significant degradation | no substantial increase in moisture content | physically and chemically stable | 99.6 | Form-M2 | 99.5 | Form-M2 | 99.5 | Form-M2 | 99.7 | Form-M2 | 99.6 | Form-M2 | 99.5 | Form-M2 | 99.5 | Form-M2 | 99.7 | Form-M2 | –
